Measured values as given in patent US12692247B2, “Phenyl- and pyridopyrazole derivatives as inhibitors of DDR1” (Redx Pharma Limited, priority 2021, dated 2026).

Tests used:
Recombinant human DDR1 = molecular target: T1, Recombinant human DDR1 (Homo sapiens, UniProt Q08345); assay: LanthaScreen Eu Kinase Binding Assay, DDR1; details: recombinant human DDR1 (2.5 nM; aa440-876, GST tag), Kinase Tracer 178 5 nM, time-resolved fluorescence, at least two independent replicates; read-out: DDR1 pIC50 (converted)
T1 construct: Recombinant human DDR1 (2.5 nM; aa440-876 containing a GST tag)
Protocol: (§1) DDR1 and DDR2 Biochemical Assay Method
(§2) The capacity of compounds to bind to DDR1 and DDR2 was quantified using a LanthaScreen Eu Kinase Binding Assay. Recombinant human DDR1 (2.5 nM; aa440-876 containing a GST tag) and DDR2 (1.75 nM; aa427-855 containing a GST tag) were diluted in assay buffer (50 mM HEPES pH7.3, 10 mM MgCl2, 1 mM EGTA and 0.01% Tween) with various concentrations of compound in a 384-well plate and a volume of 5 uL. After a 30-minute incubation at room temperature, 2.5 uL of Eu-anti GST antibody (diluted to 1 nM in assay buffer) plus Kinase Tracer 178 (diluted in assay buffer to 5 nM for DDR1 and 10 nM for DDR2) were added to the plate. Following 60-minute incubation at room temperature, time-resolved fluorescence was measured on a BMG Labtech PHERAstar plate reader. DMSO (1%) and reference compound (1 μM) were used to generate the Max and Min assay signals, respectively. Data was analysed using a four-parameter logistic model to calculate IC50 values, with at least two independent replicates were performed for each compound.

Recombinant human DDR2 = molecular target: T2, Recombinant human DDR2 (Homo sapiens, UniProt Q16832); assay: LanthaScreen Eu Kinase Binding Assay, DDR2; details: recombinant human DDR2 (1.75 nM; aa427-855, GST tag), Kinase Tracer 178 10 nM, time-resolved fluorescence, at least two independent replicates; read-out: DDR2 pIC50 (converted)
T2 construct: DDR2 (1.75 nM; aa427-855 containing a GST tag)
T2 sequence (Q16832 427-855): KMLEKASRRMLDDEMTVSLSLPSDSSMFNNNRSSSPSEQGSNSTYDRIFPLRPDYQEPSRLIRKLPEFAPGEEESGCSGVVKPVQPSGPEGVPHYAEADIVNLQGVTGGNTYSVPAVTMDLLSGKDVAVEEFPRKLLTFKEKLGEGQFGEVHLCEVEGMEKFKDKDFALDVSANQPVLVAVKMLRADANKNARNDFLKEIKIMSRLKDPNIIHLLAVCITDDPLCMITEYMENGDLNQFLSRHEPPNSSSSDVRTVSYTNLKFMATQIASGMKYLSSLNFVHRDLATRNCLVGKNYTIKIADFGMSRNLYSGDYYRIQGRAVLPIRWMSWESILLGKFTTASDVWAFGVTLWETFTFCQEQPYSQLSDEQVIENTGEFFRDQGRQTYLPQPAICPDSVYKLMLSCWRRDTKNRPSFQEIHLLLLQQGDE
Protocol: as §1, §2

T1 sequence (Q08345 440-876 isoform Q08345-2): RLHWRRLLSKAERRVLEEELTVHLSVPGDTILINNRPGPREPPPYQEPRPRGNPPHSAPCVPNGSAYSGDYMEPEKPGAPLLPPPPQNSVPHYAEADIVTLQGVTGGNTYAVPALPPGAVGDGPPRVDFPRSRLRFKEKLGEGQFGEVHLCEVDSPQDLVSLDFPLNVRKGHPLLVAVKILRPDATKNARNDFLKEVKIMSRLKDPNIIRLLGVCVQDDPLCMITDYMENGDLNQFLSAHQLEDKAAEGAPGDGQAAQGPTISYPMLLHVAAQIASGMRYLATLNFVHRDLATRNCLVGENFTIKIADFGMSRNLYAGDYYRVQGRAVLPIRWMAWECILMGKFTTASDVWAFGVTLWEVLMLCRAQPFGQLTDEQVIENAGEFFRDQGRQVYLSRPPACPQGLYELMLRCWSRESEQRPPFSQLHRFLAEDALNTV

| IC50 (Recombinant human DDR1) [nM] | IC50 (Recombinant human DDR2) [nM] | Compound |
| --- | --- | --- |
| 100 to 1000 | ≥ 1000 | Cn1cc(NC(=O)Cn2ccc3cccc(Nc4ccc5c(cnn5C)c4)c3c2=O)cn1 [Example 41, 2-[8-[(1-methylindazol-5-yl)amino]-1-oxo-2-isoquinolyl]-N-(1-methylpyrazol-4-yl)acetamide] |
| 10 to 100 | 100 to 1000 | Cn1ncc2cc(Nc3cccc4ccn(CC(=O)NC5(C(F)(F)F)CCCC5)c(=O)c34)ccc21 [Example 42, 2-[8-[(1-methylindazol-5-yl)amino]-1-oxo-2-isoquinolyl]-N-[1-(trifluoromethyl)cyclopentyl]acetamide] |
| 10 to 100 | ≥ 1000 | Cn1ncc2cc(Nc3cccc4ccn(CC(=O)N5CCOC(C(F)(F)F)C5)c(=O)c34)ccc21 (centres unmarked) [Example 43, 8-[(1-methylindazol-5-yl)aminio]-2-[2-oxo-2-[2-(trifluoromethyl)morpholin-4-yl]ethyl]isoquinolin-1-one] |
| 100 to 1000 | ≥ 1000 | Cn1ncc2cc(Nc3cccc4ccn(CC(=O)NCCC(F)(F)F)c(=O)c34)ccc21 [Example 44, 2-[8-[(1-methylindazol-5-yl)amino]-1-oxo-2-isoquinolyl]-N-(3,3,3-trifluoropropyl)acetamide] |
| 10 to 100 | 10 to 100 | CC[C@H](NC(=O)Cn1ccc2cccc(Nc3ccc4c(cnn4C)c3)c2c1=O)C(F)(F)F [Example 45, 2-[8-[(1-methylindazol-5-yl)amino]-1-oxo-2-isoquinolyl]-N-[(1S)-1-(trifluoromethyl)propyl]acetamide] |
| 10 to 100 | 10 to 100 | CC(C)[C@H](NC(=O)Cn1ccc2cccc(Nc3ccc4c(cnn4C)c3)c2c1=O)C(F)(F)F [Example 46, 2-[8-[(1-methylindazol-5-yl)amino]-1-oxo-2-isoquinolyl]-N-[(S)-2-methyl-1-(trifluoromethyl)propyl]acetamide] |
| 100 to 1000 | ≥ 1000 | Cn1ncc2cc(Nc3cc(F)cc4ccn(CC(=O)NCC(F)(F)F)c(=O)c34)ccc21 [Example 47, 2-[6-fluoro-8-[(1-methylindazol-5-yl)amino]-1-oxo-2-isoquinolyl]-N-(2,2,2-trifluoroethyl) acetamide] |
| 10 to 100 | 10 to 100 | Cn1ncc2cc(Nc3cccc4ccn(CC(=O)Nc5cc(C(F)(F)F)no5)c(=O)c34)ccc21 [Example 48, 2-[8-[(1-methylindazol-5-yl)amino]-1-oxo-2-isoquinolyl]-N-[3-(trifluoromethyl)isoxazol-5-yl]acetamide] |
| < 10 | 10 to 100 | Cn1ncc2cc(Nc3cccc4ccn(CC(=O)N5CCC[C@H]5C(F)(F)F)c(=O)c34)ccc21 [Example 49] |
| ≥ 1000 | ≥ 1000 | Cn1ncc2cc(Nc3cccc4ccn(CC(=O)NC(CO)C(F)(F)F)c(=O)c34)ccc21 (centres unmarked) [Example 50, 2-[8-[(1-methylindazol-5-yl)amino]-1-oxo-2-isoquinolyl]-N-[2,2,2-trifluoro-1-(hydroxymethyl)ethyl)acetamide] |
| ≥ 1000 | ≥ 1000 | CC(C(=O)NCC(F)(F)F)n1ccc2cccc(Nc3ccc4c(cnn4C)c3)c2c1=O (centres unmarked) [Example 51, 2-[8-[(1-methylindazol-5-yl)amino]-1-oxo-2-isoquinolyl]-N-(2,2,2-trifluoroethyl) propanamide] |
| < 10 | 10 to 100 | O=C(Cn1ccc2cccc(Nc3cc(Cl)c4[nH]ncc4c3)c2c1=O)NCC(F)(F)F [Example 52, 2-[8-[(7-chloro-1H-indazol-5-yl)amino]-1-oxo-2-isoquinolyl]-N-(2,2,2-trifluoroethyl) acetamide] |
| 100 to 1000 | ≥ 1000 | Cn1ncc2cc(Nc3cccc4ccn(CC(=O)NCC(C)(C)O)c(=O)c34)ccc21 [Example 54, N-(2-hydroxy-2-methyl-propyl)-2-[8-[(1-methylindazol-5-yl)amino]-1-oxo-2-isoquinolyl]acetamide] |
| 10 to 100 | ≥ 1000 | COc1ccc(NC(=O)Cn2ccc3cccc(Nc4ccc5c(cnn5C)c4)c3c2=O)cc1 [Example 55, N-(4-methoxyphenyl)-2-[8-[(1-methylindazol-5-yl)amino]-1-oxo-2-isoquinolyl]acetamide] |
| 10 to 100 | 10 to 100 | COc1cncc(NC(=O)Cn2ccc3cccc(Nc4ccc5c(cnn5C)c4)c3c2=O)c1 [Example 56, N-(5-methoxy-3-pyridyl)-2-[8-[(1-methylindazol-5-yl)amino]-1-oxo-2-isoquinolyl]acetamide] |
| < 10 | 10 to 100 | Cn1ncc2cc(Nc3cccc4ccn(CC(=O)N[C@@H](C5CC5)C(F)(F)F)c(=O)c34)ccc21 [Example 57, N-[(1S)-1-cyclopropyl-2,2,2-trifluoro-ethyl]-2-[8-[(1-methylindazol-5-yl)amino]-1-oxo-2-isoquinolyl]acetamide] |
| 10 to 100 | 100 to 1000 | Cn1ncc2cc(Nc3cccc4ccn(CC(=O)Nc5ccc(C(F)(F)F)nc5)c(=O)c34)ccc21 [Example 59, 2-[8-[(1-methylindazol-5-yl)amino]-1-oxo-2-isoquinolyl]-N-[6-(trifluoromethyl)-3-pyridyl]acetamide] |
| 100 to 1000 | ≥ 1000 | Cn1ncc2cc(Nc3cccc4ccn(CC(=O)N5CCC[C@H]5C(C)(C)O)c(=O)c34)ccc21 [Example 60, 2-[2-[(2S)-2-(1-hydroxy-1-methyl-ethyl)pyrrolidin-1-yl]-2-oxo-ethyl]-8-[(1-methylindazol-5-yl)amino]isoquinolin-1-one] |
| < 10 | 10 to 100 | Cn1ncc2cc(Nc3cccc4ccn(CC(=O)N5CCCC[C@H]5C(F)(F)F)c(=O)c34)ccc21 [Example 61, 8-[(1-methylindazol-5-yl)amino]-2-[2-oxo-2-[(2S)-2-(trifluoromethyl)-1-piperidyl]ethyl]isoquinolin-1-one] |
| 10 to 100 | 10 to 100 | COC(=O)c1cncc(NC(=O)Cn2ccc3cccc(Nc4ccc5c(cnn5C)c4)c3c2=O)c1 [Example 63] |
| 100 to 1000 | 100 to 1000 | Cc1noc(C)c1NC(=O)Cn1ccc2cccc(Nc3ccc4c(cnn4C)c3)c2c1=O [Example 69, N-(3,5-dimethylisoxazol-4-yl)-2-[8-[(1-methylindazol-5-yl)amino]-1-oxo-2-isoquinolyl]acetamide] |
| 100 to 1000 | ≥ 1000 | COC(=O)C1CCN(C(=O)Cn2ccc3cccc(Nc4ccc5c(cnn5C)c4)c3c2=O)C1 (centres unmarked) [Example 73, methyl 1-[2-[8-[(1-methylindazol-5-yl)amino]-1-oxo2-isoquinolyl]acetyl]pyrrolidine-3-carboxylate] |
| 10 to 100 | 100 to 1000 | Cn1ncc2cc(Nc3cccc4ccn(CC(=O)Nc5ccon5)c(=O)c34)ccc21 [Example 74, N-isoxazol-3-yl-2-[8-[(1-methylindazol-5-yl)amino]-1-oxo-2-isoquinolyl]acetamide] |
| 10 to 100 | 10 to 100 | CN1CCN(Cc2ccc(NC(=O)Cn3ccc4cccc(Nc5ccc6c(cnn6C)c5)c4c3=O)cc2C(F)(F)F)CC1 [Example 76] |
| ≥ 1000 | ≥ 1000 | Cn1ccnc1NC(=O)Cn1ccc2cccc(Nc3ccc4c(cnn4C)c3)c2c1=O [Example 77, N-(1-methylimidazol-2-yl)-2-[8-[(1-methylindazol-5-yl)amino]-1-oxo-2-isoquinolyl]acetamide] |
| 10 to 100 | 100 to 1000 | Cn1ncc2cc(Nc3cccc4ccn(CC(=O)N5CCC[C@H]5C(F)(F)F)c(=O)c34)cnc21 [Example 78, 8-[(1-methylpyrazolo[3,4-b]pyridin-5-yl)amino]-2-[2-oxo-2-[(2S)-2-(trifluoromethyl)pyrrolidin-1-yl]ethyl]isoquinolin-1-one] |
| 10 to 100 | 100 to 1000 | Cc1cn(-c2cc(NC(=O)Cn3ccc4cccc(Nc5ccc6c(cnn6C)c5)c4c3=O)cc(C(F)(F)F)c2)cn1 [Example 79, N-[3-(4-methylimidazol-1-yl)-5-(trifluoromethyl)phenyl]-2-[8-[(1-methylindazol-5-yl)amino]-1-oxo-2-isoquinolyl]acetamide] |
| 100 to 1000 | ≥ 1000 | CC(=O)C1CCN(C(=O)Cn2ccc3cccc(Nc4ccc5c(cnn5C)c4)c3c2=O)CC1 [Example 80, 2-[2-(4-acetyl-1-piperidyl)-2-oxo-ethyl]-8-[(1-methylindazol-5-yl)amino]isoquinolin-1-one] |
